Measurements as given in patent publication US8987257B2 (Novartis AG, priority 2011, dated 2015).

Legend:
[1] = biological target: FRAP1/mTOR (Homo sapiens (Human), UniProt P42345); assay: Test 2: mTOR Biochemical Assay (FRAP1/mTOR TR-FRET tracer assay); assay type: binding; conditions: mTOR Kinase Tracer 314
Description: IC50s for mTOR interacting compounds were assessed using the FRAP1/mTOR TR-FRET tracer assay (Invitrogen by Life Technologies). […] Compounds were serially diluted in DMSO (12-point, 4× dilution factor) and 1 μL of diluted compound was then added to each well and mixed by pipetting using a Biomek FX (Beckman Coulter).

[2] = system: H4 mCherry-GFP-LC3 cells; assay: Test 4: Autophagy Assay (mCherry-GFP-LC3 reporter, high-content imaging); assay type: cell-based; conditions: Homo sapiens, 16-18 h
Description: Autophagy is a catabolic pathway that degrades bulk cytosol in lysosomal compartments enabling amino acids and fatty acids to be recycled. […] To quantify autophagy induction by mTOR inhibitors, we use a mCherry-GFP-LC3 reporter which is amenable to retroviral delivery into mammalian cells, stable expression and analysis by fluorescence microscopy.
Described hereinafter is an imaging protocol and image recognition algorithm to visualize and measure changes in the autophagic pathway.
Quantification of Autophagy Using High-Content Imaging and Analysis
• 1. Day 0: Cell plating. Subconfluent H4 mCherry-GFP-LC3 cells are harvested by trypsinization, resuspended in growth medium, and counted (H4 cells: Human neuroglioma cell line (ATCC)). A cell suspension of 66′000 cells/mL is prepared and 30 μL are added into the wells of a 384-well plate using an electronic multichannel pipette. […] The cell plates are briefly spun down and placed at 37° C. and 5% CO2. • 2. Day 1: Compound treatment. Compound dose responses are prepared in DMSO. The dose responses are then diluted 1:50 in medium. 10 ul of the diluted compound is added to 30 ul of cells, yielding a final 1:200 dilution of the original compound and final of 0.5% DMSO. Compound-treatments are performed in triplicates. The 384-well plates are placed at 37° C. and 5% CO2. Compound treatment is performed for 16-18 h (see Note 1). • 3. Day 2: Cell fixation. Cells are fixed by adding 10 μL/well 5× concentrated Mirsky's fixative supplemented with 25 μg/mL Hoechst33342. […] The 384-well plate is briefly spun down and incubated for 1 h at room temperature. Cells are then washed using a 384-well plate washer using a protocol which aspirates the volume down to 10 μL/well before dispensing 100 μL/well 1×TBS. Aspiration and dispensing steps are repeated 4 times and a final volume of 100 μL/well is left. The plate is sealed using an adhesive PCR foil. • 4. Imaging. The bottom of the plate is cleaned with 70% ethanol and then imaged using the InCell 1000 automated epifluorescence microscope. 20× magnification is used and 4 different areas (fields) are imaged per well, this typically captures a total of around 400 cells per well. Hoechst33342 images are acquired using an excitation of 360 nm (D360—40× filter), an emission of 460 nm (HQ460—40M filter) and an exposure time of 150 ms. GFP images are acquired using an excitation of 475 nm (S47520× filter), an emission of 535 nm (HQ535—50M filter) and an exposure time of 1 s. mCherry images are acquired using an excitation of 535 nm (HQ535—50× filter), an emission of 620 nm (HQ620—60M filter) and an exposure time of 1 s. A quadruple band pass mirror is used for all images. • 5. Image analysis. The InCell Analysis software is used to analyze the images using the Multi Target Analysis algorithm. First, nuclei are detected in the Hoechst33342 image using top-hat segmentation and a minimal nuclear area of 50 μm^2. Cells are defined using a collar of 10 μm around the nuclei. Second, puncta (organelles) are identified in the mCherry image inside the cells using multi-top-hat segmentation. Third, the mask of the mCherry puncta is transferred onto the GFP image. Fourth, the GFP fluorescence intensity inside the mCherry puncta mask is measured (reference intensity). • 6. The ‘organelles’ parameter reflects mCherry-positive puncta of the mCherry-GFP-LC3 reporter and is used to calculate ‘LC3 puncta/cell’. For this purpose, the number of organelles is calculated per cell and averaged over all the cells in a given well (average per cell basis). mCherry-positive LC3 puncta numbers (y-axis) are plotted against the compound dose response values (x-axis) and EC50 values are calculated for each compound. EC50 values represent compound potency in terms of autophagy activation (e.g. increase in mCherry-positive LC3 puncta count). Notes • 1. Autophagy-modulation and redistribution of mCherry-GFP-LC3 can be already observed after a compound treatment time of 3-4 h. […]

[3] = biological target: PI3Kα (Homo sapiens (Human), UniProt P42336); assay: Test 1: PI3 Kinase Assay (PI3K KinaseGlo assay); assay type: biochemical; conditions: 1 μM ATP
PI3Kα, sequence (P42336 other isoform, or with tags, fused parts or gaps): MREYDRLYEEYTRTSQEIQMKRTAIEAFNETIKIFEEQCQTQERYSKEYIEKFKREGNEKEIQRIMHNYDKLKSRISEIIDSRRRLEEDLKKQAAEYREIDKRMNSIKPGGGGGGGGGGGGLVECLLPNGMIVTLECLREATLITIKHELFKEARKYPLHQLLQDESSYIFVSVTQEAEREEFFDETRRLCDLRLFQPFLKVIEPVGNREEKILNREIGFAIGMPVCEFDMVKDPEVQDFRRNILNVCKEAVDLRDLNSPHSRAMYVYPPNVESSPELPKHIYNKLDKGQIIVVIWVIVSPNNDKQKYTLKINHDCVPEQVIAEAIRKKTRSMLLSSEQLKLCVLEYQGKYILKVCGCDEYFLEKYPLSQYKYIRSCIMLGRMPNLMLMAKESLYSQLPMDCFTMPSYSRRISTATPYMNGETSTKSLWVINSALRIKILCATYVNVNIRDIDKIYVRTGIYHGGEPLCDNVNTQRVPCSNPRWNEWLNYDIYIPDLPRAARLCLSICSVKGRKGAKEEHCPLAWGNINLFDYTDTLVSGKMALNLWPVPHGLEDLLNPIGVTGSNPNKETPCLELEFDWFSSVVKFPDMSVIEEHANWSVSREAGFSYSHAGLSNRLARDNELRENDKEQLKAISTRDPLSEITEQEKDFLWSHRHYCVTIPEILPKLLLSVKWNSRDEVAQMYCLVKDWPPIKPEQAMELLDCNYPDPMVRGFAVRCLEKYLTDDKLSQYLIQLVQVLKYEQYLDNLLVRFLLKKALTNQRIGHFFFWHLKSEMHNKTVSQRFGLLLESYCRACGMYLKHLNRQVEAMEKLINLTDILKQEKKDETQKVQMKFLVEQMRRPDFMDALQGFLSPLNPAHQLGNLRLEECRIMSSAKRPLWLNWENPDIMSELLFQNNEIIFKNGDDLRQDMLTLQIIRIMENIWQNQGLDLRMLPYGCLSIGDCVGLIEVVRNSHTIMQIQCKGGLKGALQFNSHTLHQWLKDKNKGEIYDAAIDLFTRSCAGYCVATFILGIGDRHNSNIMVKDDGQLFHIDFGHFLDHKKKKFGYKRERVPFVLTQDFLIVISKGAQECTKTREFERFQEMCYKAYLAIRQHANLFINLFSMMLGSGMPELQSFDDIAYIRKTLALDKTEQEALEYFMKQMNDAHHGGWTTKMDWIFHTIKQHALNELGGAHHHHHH
Description: L-a-phosphatidylinositol (PI), provided as 10 mg/ml solution in methanol, was transferred into a glass tube and dried under nitrogen beam. It was then resuspended in 3% OctylGlucoside (OG) by vortexing and stored at 4° C. The KinaseGlo Luminescent Kinase Assay (Promega, Madison/WI, USA) is a homogeneous HTS method of measuring kinase activity by quantifying the amount of ATP remaining in solution following a kinase reaction.
Kinase reactions were started by addition of 5 μl of ATP-mix containing in a final volume 10 μL 10 mM TRIS-HCl pH 7.5, 3 mM MgCl2, 50 mM NaCl, 0.05% CHAPS, 1 mM DTT and 1 μM ATP, and occurred at room temperature.
The PI3Kα construct is a fusion of p85α iSH2 domain and the respective p110 isoform. The p85α fragment and p110 isoform gene were generated by PCR from first strand cDNA generated by RT-PCR from commercial RNA from placenta, testis and brain as described below.
The p85 fragment was derived from plasmid p1661-2 digested with Nhe/Spe. The p110α fragment derived from its clone was verified by sequencing and used in LR410 as a SpeI/HindIII fragment. For the generation of the baculovirus expression vector LR410 the gateway LR reaction to transfer the insert into the Gateway adapted pBlueBac4.5 (Invitrogen) vector was used. The cloning vector pBlueBac4.5 (Invitrogen) was digested with Nhe/HindIII. […] The two reverse primers overlap and incorporate a 12×Gly linker and the N-terminal sequence of the p110α gene to the SpeI site. The PCR fragment was cloned into pCR2.1 TOPO (Invitrogen). Of the resulting clones, p1661-2 was determined to be correct by sequencing. This plasmid was digested with Nhe and SpeI and the resulting fragment was gel-isolated and purified for sub-cloning.
PI3Kα was purified in two chromatographic steps: immobilized metal affinity chromatography (IMAC) on a Ni sepharose resin (GE Healthcare) and gel filtration utilizing a Superdex 200 26/60 column (GE Healthcare). All buffers were chilled to 4° C. and lysis was performed chilled on ice. Column fractionation was performed at room temperature.

[4] = system: constitutively active mTOR; assay: Test 3: TSC Assay (high content imaging of phospho-S6 (240/244) in TSC1−/− MEFs); assay type: cell-based; conditions: Mus musculus, pS6 240/244 staining, 2 hrs compound treatment
Description: This assay generates IC50 values for compounds that inhibit mTOR.
Quantification of pS6 Staining Using High-Content Imaging and Analysis
Day 0: Cell plating. Subconfluent TSC1−/− MEFs are harvested by trypsinization, resuspended in growth medium, and counted. […] The plates are briefly spun down and placed at 37° C. and 5% CO2. • 2. Day 1: Cell plates are washed into a PBS starve solution (contains glucose, sodium bicarbonate, HEPES and phenol red) using a 384-well plate washer. The wash protocol aspirates the volume down to 30 μL/well before dispensing 60 μL/well of the PBS starve solution. Aspiration and dispensing steps are repeated 8 times and a final volume of 30 μL/well is left. The cell plates are placed at 37° C. and 5% CO2 for 2 hrs. • Compound treatment. Compound dose responses are prepared in DMSO. The dose responses are then diluted 1:50 in medium. 10 ul of the diluted compound is added to 30 ul of cells, yielding a final 1:200 dilution of the original compound and final of 0.5% DMSO. Compound-treatments are performed in triplicates. The plates are placed at 37° C. and 5% CO2 for 2 hrs. Cells are then fixed by adding 10 μL/well 5× concentrated Mirsky's fixative. […] The cell plates are briefly spun down and incubated for 1 h at room temperature. Cells are then washed using a 384-well plate washer using a protocol which aspirates the volume down to 30 μL/well before dispensing 60 μL/well 1×TBS. Aspiration and dispensing steps are repeated 8 times and then an additional aspiration step leaves a final volume of 10 μL/well. Block buffer (1×TBS+0.1% Triton X-100+0.1% BSA) is then added at 25 μL/well and the plates are incubated at room temperature for 30 min. The cell plates are then aspirated down to 10 μL/well. […] Plates are incubated overnight at 4° C. • 3. […] The bottom of the plate is cleaned with 70% ethanol and then imaged using the InCell 1000 automated epifluorescence microscope. […] Cy5 images are acquired using an excitation of 620 nm (Chroma 620—60× filter), an emission of 700 nm (Chroma HQ700—75M filter) and an exposure time of 200 ms. A double band pass mirror is used for all images. • 4. Image analysis: The InCell Analysis software is used to analyze the images using the Dual Object algorithm. […] The Cy5 fluorescence intensity inside the collar is measured (cell intensity) and results are reported on an “Average per cell” basis. • 5. IC50 calculation: IC50s are calculated by plotting the cell intensity values on the y-axis with dose response values on the x-axis. IC50 values represent compound potency against mTOR.

[5] = Table 1, mCherry-positive LC3 puncta/cell
[6] = Table 4 (unit inferred), mCherry-positive LC3 puncta/cell

FRAP1/mTOR, sequence (P42345 1360-2549): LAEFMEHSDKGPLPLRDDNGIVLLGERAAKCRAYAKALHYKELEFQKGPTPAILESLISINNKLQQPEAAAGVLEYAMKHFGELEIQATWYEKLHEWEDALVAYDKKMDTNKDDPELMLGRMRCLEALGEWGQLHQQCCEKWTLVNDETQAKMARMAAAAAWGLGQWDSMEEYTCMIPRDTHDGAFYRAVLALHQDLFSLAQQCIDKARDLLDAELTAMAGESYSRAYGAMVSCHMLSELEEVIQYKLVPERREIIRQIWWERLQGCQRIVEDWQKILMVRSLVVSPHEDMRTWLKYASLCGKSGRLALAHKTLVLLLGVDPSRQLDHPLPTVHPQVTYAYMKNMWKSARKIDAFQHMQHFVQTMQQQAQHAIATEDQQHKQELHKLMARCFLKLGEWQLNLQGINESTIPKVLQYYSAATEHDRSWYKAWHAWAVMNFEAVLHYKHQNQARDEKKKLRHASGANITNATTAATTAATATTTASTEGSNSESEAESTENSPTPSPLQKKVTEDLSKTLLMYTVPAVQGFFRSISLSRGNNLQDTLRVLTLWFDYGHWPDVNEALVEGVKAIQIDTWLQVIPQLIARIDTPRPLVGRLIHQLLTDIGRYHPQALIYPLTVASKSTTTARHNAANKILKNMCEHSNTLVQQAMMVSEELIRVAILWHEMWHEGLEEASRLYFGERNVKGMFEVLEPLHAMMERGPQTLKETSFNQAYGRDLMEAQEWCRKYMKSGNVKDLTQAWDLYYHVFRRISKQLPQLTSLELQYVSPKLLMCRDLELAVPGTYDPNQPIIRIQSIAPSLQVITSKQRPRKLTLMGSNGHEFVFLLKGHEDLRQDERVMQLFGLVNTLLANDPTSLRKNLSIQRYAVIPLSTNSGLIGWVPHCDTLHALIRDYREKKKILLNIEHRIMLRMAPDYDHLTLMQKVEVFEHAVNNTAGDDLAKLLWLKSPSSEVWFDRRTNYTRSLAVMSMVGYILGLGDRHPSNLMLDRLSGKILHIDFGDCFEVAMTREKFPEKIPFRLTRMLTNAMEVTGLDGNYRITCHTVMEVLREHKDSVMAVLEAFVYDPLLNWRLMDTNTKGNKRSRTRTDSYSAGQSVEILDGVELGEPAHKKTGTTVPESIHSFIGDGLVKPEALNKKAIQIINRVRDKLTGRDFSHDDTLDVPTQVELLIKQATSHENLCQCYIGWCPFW

Row | SMILES | IC50 [1] | EC50 [2, 5] | IC50 [3] | IC50 [4] | EC50 [2, 6]
1 | c1cc(-c2nc3c(N4CCOCC4)nc(N4CCOCC4)nc3[nH]2)c2cc[nH]c2c1 [Example 26, 8-(1H-Indol-4-yl)-2,6-di-morpholin-4-yl-9H-purine] | 8 nM | 184 nM | 0.57 µM | 81 nM | 
2 | C[C@@H]1COCCN1c1nc(N2CCOC[C@@H]2C)nc2[nH]c(-c3cccc4c3CCN4)nc12 [Example 41, 8-(2,3-Dihydro-1H-indol-4-yl)-2-((S)-3-methyl-morpholin-4-yl)-6-((R)-3-methyl-morpholin-4-yl)-9H-purine] | 30 nM |  | 3.35 µM | 457 nM | 2900 nM
3 | C[C@H]1COCCN1c1nc(N2CCC(O)CC2)nc2[nH]c(-c3cccc4[nH]ccc34)nc12 [Example 16, 1-[8-(1H-Indol-4-yl)-6-((S)-3-methyl-morpholin-4-yl)-9H-purin-2-yl]-piperidin-4-ol] | 160 nM | 2000 nM | 7.3 µM | 460 nM | 
4 | NCc1cccc(-c2nc3c(N4CCOCC4)nc(N4CCOCC4)nc3[nH]2)c1 [Example 11, 3-(2,6-Di-morpholin-4-yl-9H-purin-8-yl)-benzylamine] | 2420 nM | > 2000 nM | 8.14 µM | 6020 nM | 
5 | C[C@H]1COCCN1c1nc(N2CCOC[C@@H]2C)c2nc(-c3ccnc4[nH]ccc34)[nH]c2n1 [Example 3, 2,6-Bis-((S)-3-methyl-morpholin-4-yl)-8-(1H-pyrrolo[2,3-b]pyridin-4-yl)-9H-purine] | 510 nM | > 2000 nM | 6.53 µM | 2320 nM | 
6 | C[C@@H]1COCCN1c1nc(N2CCOC[C@H]2C)c2nc(-c3ccc4cc[nH]c4c3)[nH]c2n1 [Example 45, 8-(1H-Indol-6-yl)-2,6-bis-((R)-3-methyl-morpholin-4-yl)-9H-purine] | 650 nM |  | 7.08 µM | 989 nM | > 400 nM
7 | c1cc(-c2nc3c(N4C5CCC4COC5)nc(N4CCOCC4)nc3[nH]2)c2cc[nH]c2c1 [Example 54, 8-(1H-Indol-4-yl)-2-morpholin-4-yl-6-(3-oxa-8-aza-bicyclo[3.2.1]oct-8-yl)-9H-purine] | 150 nM |  | 5.79 µM | 309 nM | 1250 nM
8 | C[C@@H]1COCCN1c1nc(N2CCOC[C@@H]2C)nc2[nH]c(-c3cccc4[nH]ccc34)cc12 [Example 55, 6-(1H-Indol-4-yl)-4-((R)-3-methyl-morpholin-4-yl)-2-((S)-3-methyl-morpholin-4-yl)-7H-pyrrolo[2,3-d]pyrimidine] | 2670 nM |  | 1.44 µM | 71 nM | 1000 nM
9 | c1cc2ccc(-c3nc4c(N5CCOCC5)nc(N5CCOCC5)nc4[nH]3)cc2[nH]1 [Example 28, 8-(1H-Indol-6-yl)-2,6-di-morpholin-4-yl-9H-purine] | 372 nM | > 200 nM | 9.05 µM | 458 nM | 
10 | c1cc2ccc(-c3nc4c(N5C6CCC5COC6)nc(N5CCOCC5)nc4[nH]3)cc2[nH]1 [Example 53, 8-(1H-Indol-6-yl)-2-morpholin-4-yl-6-(3-oxa-8-aza-bicyclo[3.2.1]oct-8-yl)-9H-purine] | 190 nM |  | > 9.1 µM | 528 nM | 782 nM
11 | C[C@@H]1COCCN1c1nc(N2CCOCC2)c2nc(-c3cccc4[nH]ccc34)[nH]c2n1 [Example 47, 8-(1H-Indol-4-yl)-2-((R)-3-methyl-morpholin-4-yl)-6-morpholin-4-yl-9H-purine] | 60 nM |  | 0.06 µM | 111 nM | 461 nM
12 | C[C@H]1COCCN1c1nc(N2CC3CCC(C2)O3)nc2[nH]c(-c3cccc4[nH]ccc34)nc12 [Example 52, 8-(1H-Indol-4-yl)-6-((S)-3-methyl-morpholin-4-yl)-2-(8-oxa-3-aza-bicyclo[3.2.1]oct-3-yl)-9H-purine] | 50 nM |  | 0.42 µM | 88 nM | 386 nM
